Reference: patent US20180325793A1, “HIGH-PERFORMANCE COSMETIC PRODUCTS CONTAINING A POLYORGANOSILOXANE AND A DIPEPTIDE” (Evonik Degussa GmbH, priority 2014, published 2018)
≈ marks a conversion by molar mass, not a printed value. Where a SMILES comes first, the peptide text is derived from it.

Test: solubility in water at room temperature
Assay type: physicochemical
Excerpt: The two pairs DD/LL-methionylmethionine and DL/LD-methionylmethionine are diastereomeric relative to one another and have different physical data. […] These mixtures can be incorporated/dissolved simply in an aqueous phase or an aqueous surfactant phase of a cosmetic composition.

| SMILES | solubility at room temperature in water |
| --- | --- |
| CSCC[C@H](NC(=O)[C@@H](N)CCSC)C(=O)O [DL/LD-methionylmethionine, methionylmethionine] (H-Met-Met-OH) | 0.4 mg/mL (≈ 1.43 mM) |
| CSCC[C@H](NC(=O)[C@@H](N)CCSC)C(=O)O [DD/LL-methionylmethionine, methionylmethionine] (H-Met-Met-OH) | 21.0 mg/mL (≈ 74.9 mM) |
